Read-outs that look alike come from different tables or passages of the source. Positions of bridges follow the written chain, without caps; N, C: chain ends. Non-standard residues stand in square brackets, D forms with d. Residues, ends and D or L forms follow the SMILES beside them. Phe(4-COOH) = N[C@@H](Cc1ccc(C(=O)O)cc1)C(=O)O; 2Pal = N[C@@H](Cc1ccccn1)C(=O)O; Cha = N[C@@H](CC1CCCCC1)C(=O)O; Phg = N[C@H](C(=O)O)c1ccccc1
Columns and labels:
Assay in all cases: cell-based
hNav1.7 = hNav1.7 (Homo sapiens, UniProt Q15858); format: cell-based; settings: IonWorks Quattro, […], read-out: IWQ Use Nav1.7
hNav1.3 = hNav1.3 (Homo sapiens, UniProt Q9NY46); settings: IonWorks Quattro, […], read-out: IWQ Use Nav1.3
hNav1.5 = hNav1.5 (Homo sapiens, UniProt Q14524)
[1] = Table 26, IonWorks Quattro, use, […], read-out: IWQ Use Nav1.5
[2] = IonWorks Quattro, use-dependent, […], read-out: IWQ Use Nav1.5

hNav1.5, sequence (Q14524 whole entry, looked up): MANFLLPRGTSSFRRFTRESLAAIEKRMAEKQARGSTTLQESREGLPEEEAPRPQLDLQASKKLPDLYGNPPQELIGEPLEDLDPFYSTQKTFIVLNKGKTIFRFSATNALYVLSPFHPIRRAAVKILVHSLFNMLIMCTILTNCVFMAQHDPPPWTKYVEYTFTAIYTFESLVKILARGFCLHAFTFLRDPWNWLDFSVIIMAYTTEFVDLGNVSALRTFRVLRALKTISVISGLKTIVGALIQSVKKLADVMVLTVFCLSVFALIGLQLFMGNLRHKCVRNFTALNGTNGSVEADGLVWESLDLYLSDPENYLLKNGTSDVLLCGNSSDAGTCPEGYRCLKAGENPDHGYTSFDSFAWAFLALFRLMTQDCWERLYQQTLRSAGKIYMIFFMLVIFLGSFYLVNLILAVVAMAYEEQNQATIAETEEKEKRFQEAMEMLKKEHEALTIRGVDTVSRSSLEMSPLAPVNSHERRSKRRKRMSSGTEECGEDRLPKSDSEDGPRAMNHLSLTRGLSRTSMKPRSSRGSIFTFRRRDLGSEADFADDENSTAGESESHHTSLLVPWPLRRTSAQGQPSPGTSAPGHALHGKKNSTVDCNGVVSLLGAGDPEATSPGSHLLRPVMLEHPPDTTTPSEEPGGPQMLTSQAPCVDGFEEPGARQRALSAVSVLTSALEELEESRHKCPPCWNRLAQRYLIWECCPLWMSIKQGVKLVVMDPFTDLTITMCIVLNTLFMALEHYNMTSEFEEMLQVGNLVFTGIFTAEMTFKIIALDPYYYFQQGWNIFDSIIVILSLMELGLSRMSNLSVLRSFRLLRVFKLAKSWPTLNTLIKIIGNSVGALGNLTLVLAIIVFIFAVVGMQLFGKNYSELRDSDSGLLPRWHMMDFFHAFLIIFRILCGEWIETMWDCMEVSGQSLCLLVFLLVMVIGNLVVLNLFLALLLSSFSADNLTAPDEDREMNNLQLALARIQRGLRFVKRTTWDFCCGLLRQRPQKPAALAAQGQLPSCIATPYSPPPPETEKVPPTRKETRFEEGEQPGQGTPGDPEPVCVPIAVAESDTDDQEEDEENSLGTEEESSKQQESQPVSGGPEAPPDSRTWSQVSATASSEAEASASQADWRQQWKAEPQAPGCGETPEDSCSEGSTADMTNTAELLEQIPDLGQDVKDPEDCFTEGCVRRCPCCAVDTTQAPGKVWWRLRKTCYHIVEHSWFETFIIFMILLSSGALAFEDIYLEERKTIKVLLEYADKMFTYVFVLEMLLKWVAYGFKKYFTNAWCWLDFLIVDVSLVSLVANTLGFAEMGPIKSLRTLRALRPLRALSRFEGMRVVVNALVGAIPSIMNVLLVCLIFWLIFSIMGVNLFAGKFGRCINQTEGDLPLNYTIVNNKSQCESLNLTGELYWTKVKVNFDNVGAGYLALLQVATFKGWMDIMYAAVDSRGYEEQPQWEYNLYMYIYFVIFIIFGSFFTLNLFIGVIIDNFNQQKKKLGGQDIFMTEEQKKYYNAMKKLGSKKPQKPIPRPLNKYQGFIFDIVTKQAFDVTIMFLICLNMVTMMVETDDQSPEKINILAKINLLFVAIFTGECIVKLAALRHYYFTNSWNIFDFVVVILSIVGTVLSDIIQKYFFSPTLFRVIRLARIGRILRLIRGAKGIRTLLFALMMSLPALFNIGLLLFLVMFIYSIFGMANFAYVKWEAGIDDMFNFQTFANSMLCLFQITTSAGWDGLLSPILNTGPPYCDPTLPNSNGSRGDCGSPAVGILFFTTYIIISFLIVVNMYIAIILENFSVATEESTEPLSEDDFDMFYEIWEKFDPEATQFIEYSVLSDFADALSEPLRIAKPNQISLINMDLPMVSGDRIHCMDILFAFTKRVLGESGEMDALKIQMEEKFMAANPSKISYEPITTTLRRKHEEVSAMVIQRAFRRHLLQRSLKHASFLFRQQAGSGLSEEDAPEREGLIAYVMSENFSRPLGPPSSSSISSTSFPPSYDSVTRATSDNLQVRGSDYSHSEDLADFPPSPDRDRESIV
hNav1.3, sequence (Q9NY46 whole entry, looked up): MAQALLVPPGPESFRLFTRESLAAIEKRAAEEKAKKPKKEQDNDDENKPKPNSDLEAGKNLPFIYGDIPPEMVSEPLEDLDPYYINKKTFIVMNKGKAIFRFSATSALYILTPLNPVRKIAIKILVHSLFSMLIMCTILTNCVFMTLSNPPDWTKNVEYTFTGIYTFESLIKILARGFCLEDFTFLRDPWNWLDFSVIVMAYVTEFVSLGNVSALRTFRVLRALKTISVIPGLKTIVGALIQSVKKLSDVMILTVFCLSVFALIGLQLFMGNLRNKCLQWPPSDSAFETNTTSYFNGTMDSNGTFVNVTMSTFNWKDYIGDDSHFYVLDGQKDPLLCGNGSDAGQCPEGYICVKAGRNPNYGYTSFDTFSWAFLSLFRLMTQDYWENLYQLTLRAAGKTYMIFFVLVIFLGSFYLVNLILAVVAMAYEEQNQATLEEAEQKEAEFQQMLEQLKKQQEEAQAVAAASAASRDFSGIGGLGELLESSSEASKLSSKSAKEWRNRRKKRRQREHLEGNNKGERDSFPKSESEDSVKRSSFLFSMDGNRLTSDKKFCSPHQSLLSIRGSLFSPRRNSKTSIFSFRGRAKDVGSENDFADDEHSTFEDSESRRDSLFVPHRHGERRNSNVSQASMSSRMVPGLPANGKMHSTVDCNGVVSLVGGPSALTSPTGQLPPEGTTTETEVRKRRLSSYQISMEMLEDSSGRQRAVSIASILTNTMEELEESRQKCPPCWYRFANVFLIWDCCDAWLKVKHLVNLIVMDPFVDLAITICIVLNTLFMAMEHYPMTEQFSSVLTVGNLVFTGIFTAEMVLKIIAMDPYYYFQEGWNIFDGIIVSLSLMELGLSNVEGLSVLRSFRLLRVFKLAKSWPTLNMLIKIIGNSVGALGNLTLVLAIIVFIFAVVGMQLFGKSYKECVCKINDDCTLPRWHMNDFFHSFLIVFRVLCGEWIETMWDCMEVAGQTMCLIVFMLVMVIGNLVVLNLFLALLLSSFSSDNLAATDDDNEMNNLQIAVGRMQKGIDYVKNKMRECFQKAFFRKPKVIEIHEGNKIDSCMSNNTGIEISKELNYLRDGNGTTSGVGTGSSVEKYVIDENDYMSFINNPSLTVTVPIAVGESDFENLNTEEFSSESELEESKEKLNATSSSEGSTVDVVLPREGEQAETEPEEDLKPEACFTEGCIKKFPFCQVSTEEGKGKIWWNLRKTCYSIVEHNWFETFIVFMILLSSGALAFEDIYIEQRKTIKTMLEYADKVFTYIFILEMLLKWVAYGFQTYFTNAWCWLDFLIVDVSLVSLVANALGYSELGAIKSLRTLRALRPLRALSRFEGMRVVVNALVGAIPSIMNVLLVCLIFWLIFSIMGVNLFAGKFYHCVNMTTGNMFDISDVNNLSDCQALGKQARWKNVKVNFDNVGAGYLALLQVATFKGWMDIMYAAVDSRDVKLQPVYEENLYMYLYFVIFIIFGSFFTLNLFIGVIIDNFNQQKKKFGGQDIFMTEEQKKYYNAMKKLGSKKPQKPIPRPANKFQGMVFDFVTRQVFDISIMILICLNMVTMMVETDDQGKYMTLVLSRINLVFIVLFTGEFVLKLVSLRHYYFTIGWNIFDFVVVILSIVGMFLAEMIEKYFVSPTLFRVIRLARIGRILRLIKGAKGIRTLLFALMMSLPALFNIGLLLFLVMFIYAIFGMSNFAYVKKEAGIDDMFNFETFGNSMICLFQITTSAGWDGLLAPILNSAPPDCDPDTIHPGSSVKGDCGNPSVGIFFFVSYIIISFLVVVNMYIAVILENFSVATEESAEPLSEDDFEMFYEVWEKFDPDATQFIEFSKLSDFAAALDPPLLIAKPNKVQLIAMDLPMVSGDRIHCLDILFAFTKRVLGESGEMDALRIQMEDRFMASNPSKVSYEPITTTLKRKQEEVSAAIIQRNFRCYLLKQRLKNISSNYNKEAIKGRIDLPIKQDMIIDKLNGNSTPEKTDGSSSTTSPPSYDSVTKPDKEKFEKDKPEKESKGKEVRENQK

Row | Compound | IC50 (hNav1.7; Table 26, use) [µM] | IC50 (hNav1.3; Table 26, use) [µM] | IC50 (hNav1.5; [1]) [µM] | IC50 (hNav1.5; IWQ Use Nav1.5 (μM)) [µM] | IC50 (hNav1.7; use-dependent) [µM] | IC50 (hNav1.3; use-dependent) [µM] | IC50 (hNav1.5; [2]) [µM]
1 | CC[C@H](C)[C@@H]1NC(=O)[C@@H]2CSSC[C@@H]3NC(=O)[C@H](C(C)C)NC(=O)[C@H](CC(C)C)NC(=O)[C@H](CC(N)=O)NC(=O)[C@@H]4CCCN4C(=O)[C@H](CCCNC(=N)N)NC(=O)[C@H](CSSC[C@H](NC(=O)[C@@H](N)CC(=O)O)C(=O)N[C@@H](CC(C)C)C(=O)NCC(=O)N[C@@H](Cc4ccccc4)C(=O)N[C@@H](CCSC)C(=O)N[C@@H](CCCNC(=N)N)C(=O)N[C@@H](CCCCN)C(=O)N2)NC(=O)[C@H](CSSC[C@@H](C(=O)N[C@@H](CCCCN)C(=O)N[C@@H](Cc2ccc(O)cc2)C(=O)N2CCC[C@H]2C(=O)N[C@@H](Cc2ccccc2)C(N)=O)NC(=O)[C@H](Cc2c[nH]c4ccccc24)NC(=O)[C@H](CCCCN)NC(=O)[C@H](Cc2c[nH]cn2)NC(=O)[C@H]([C@@H](C)O)NC(=O)[C@H](CCCNC(=N)N)NC(=O)[C@H](CO)NC3=O)NC(=O)[C@H](CCCCN)NC(=O)[C@H](CC(=O)O)NC(=O)[C@H](CC(N)=O)NC(=O)[C@H](CC(=O)O)NC(=O)[C@@H]2CCCN2C1=O [compound 398] (H-DCLGFMRKCIPDNDKCCRPNLVCSRTHKWCKYPF-NH2; disulfide 2-17, 9-23, 16-30) | 5.19 | 3.34 | 6.93 | – | – | – | –
2 | CC[C@H](C)[C@@H]1NC(=O)[C@@H]2CSSC[C@@H]3NC(=O)[C@H](C(C)C)NC(=O)[C@H](CC(C)C)NC(=O)[C@H](CC(N)=O)NC(=O)[C@@H]4CCCN4C(=O)[C@H](CCCNC(=N)N)NC(=O)[C@H](CSSC[C@H](NC(=O)[C@@H](N)CC(=O)O)C(=O)N[C@@H](CC(C)C)C(=O)NCC(=O)N[C@@H](Cc4ccccc4)C(=O)N[C@@H](CCSC)C(=O)N[C@@H](CCCNC(=N)N)C(=O)N[C@@H](CCCCN)C(=O)N2)NC(=O)[C@H](CSSC[C@@H](C(=O)N[C@@H](CCCCN)C(=O)N[C@@H](Cc2ccc(O)cc2)C(=O)N[C@@H](Cc2ccc(O)cc2)C(=O)N[C@@H](Cc2ccccc2)C(N)=O)NC(=O)[C@H](Cc2c[nH]c4ccccc24)NC(=O)[C@H](CCCCN)NC(=O)[C@H](Cc2c[nH]cn2)NC(=O)[C@H]([C@@H](C)O)NC(=O)[C@H](CCCNC(=N)N)NC(=O)[C@H](CO)NC3=O)NC(=O)[C@H](CCCCN)NC(=O)[C@H](CC(=O)O)NC(=O)[C@H](CC(N)=O)NC(=O)[C@H](CC(=O)O)NC(=O)[C@@H]2CCCN2C1=O [compound 399] (H-DCLGFMRKCIPDNDKCCRPNLVCSRTHKWCKYYF-NH2; disulfide 2-17, 9-23, 16-30) | 0.07 | 0.03 | > 5 | – | – | – | –
3 | CC[C@H](C)[C@@H]1NC(=O)[C@@H]2CSSC[C@@H]3NC(=O)[C@H](C(C)C)NC(=O)[C@H](CC(C)C)NC(=O)[C@H](CC(N)=O)NC(=O)[C@@H]4CCCN4C(=O)[C@H](CCCNC(=N)N)NC(=O)[C@H](CSSC[C@H](NC(=O)[C@@H](N)CC(=O)O)C(=O)N[C@@H](CC(C)C)C(=O)NCC(=O)N[C@@H](Cc4ccccc4)C(=O)N[C@@H](CCSC)C(=O)N[C@@H](CCCNC(=N)N)C(=O)N[C@@H](CCCCN)C(=O)N2)NC(=O)[C@H](CSSC[C@@H](C(=O)N[C@@H](CCCCN)C(=O)N[C@@H](Cc2ccc(O)cc2)C(=O)N[C@@H](CC(C)C)C(=O)N[C@@H](Cc2ccccc2)C(N)=O)NC(=O)[C@H](Cc2c[nH]c4ccccc24)NC(=O)[C@H](CCCCN)NC(=O)[C@H](Cc2c[nH]cn2)NC(=O)[C@H]([C@@H](C)O)NC(=O)[C@H](CCCNC(=N)N)NC(=O)[C@H](CO)NC3=O)NC(=O)[C@H](CCCCN)NC(=O)[C@H](CC(=O)O)NC(=O)[C@H](CC(N)=O)NC(=O)[C@H](CC(=O)O)NC(=O)[C@@H]2CCCN2C1=O [compound 400] (H-DCLGFMRKCIPDNDKCCRPNLVCSRTHKWCKYLF-NH2; disulfide 2-17, 9-23, 16-30) | 0.13 | 0.07 | – | > 5 | – | – | –
4 | CC[C@H](C)[C@@H]1NC(=O)[C@@H]2CSSC[C@@H]3NC(=O)[C@H](C(C)C)NC(=O)[C@H](CC(C)C)NC(=O)[C@H](CC(N)=O)NC(=O)[C@@H]4CCCN4C(=O)[C@H](CCCNC(=N)N)NC(=O)[C@H](CSSC[C@H](NC(=O)[C@@H](N)CC(=O)O)C(=O)N[C@@H](CC(C)C)C(=O)NCC(=O)N[C@@H](Cc4ccccc4)C(=O)N[C@@H](CCSC)C(=O)N[C@@H](CCCNC(=N)N)C(=O)N[C@@H](CCCCN)C(=O)N2)NC(=O)[C@H](CSSC[C@@H](C(=O)N[C@@H](CCCCN)C(=O)N[C@@H](Cc2ccc(O)cc2)C(=O)NCC(=O)N[C@@H](Cc2ccccc2)C(N)=O)NC(=O)[C@H](Cc2c[nH]c4ccccc24)NC(=O)[C@H](CCCCN)NC(=O)[C@H](Cc2c[nH]cn2)NC(=O)[C@H]([C@@H](C)O)NC(=O)[C@H](CCCNC(=N)N)NC(=O)[C@H](CO)NC3=O)NC(=O)[C@H](CCCCN)NC(=O)[C@H](CC(=O)O)NC(=O)[C@H](CC(N)=O)NC(=O)[C@H](CC(=O)O)NC(=O)[C@@H]2CCCN2C1=O [compound 401] (H-DCLGFMRKCIPDNDKCCRPNLVCSRTHKWCKYGF-NH2; disulfide 2-17, 9-23, 16-30) | 0.29 | 0.04 | – | > 5 | – | – | –
5 | CC[C@H](C)[C@@H]1NC(=O)[C@@H]2CSSC[C@@H]3NC(=O)[C@H](C(C)C)NC(=O)[C@H](CC(C)C)NC(=O)[C@H](CC(N)=O)NC(=O)[C@@H]4CCCN4C(=O)[C@H](CCCNC(=N)N)NC(=O)[C@H](CSSC[C@H](NC(=O)[C@@H](N)CC(=O)O)C(=O)N[C@@H](CC(C)C)C(=O)NCC(=O)N[C@@H](Cc4ccccc4)C(=O)N[C@@H](CCSC)C(=O)N[C@@H](CCCNC(=N)N)C(=O)N[C@@H](CCCCN)C(=O)N2)NC(=O)[C@H](CSSC[C@@H](C(=O)N[C@@H](CCCCN)C(=O)N[C@@H](Cc2ccc(O)cc2)C(=O)N[C@@H](Cc2ccccn2)C(=O)N[C@@H](Cc2ccccc2)C(N)=O)NC(=O)[C@H](Cc2c[nH]c4ccccc24)NC(=O)[C@H](CCCCN)NC(=O)[C@H](Cc2c[nH]cn2)NC(=O)[C@H]([C@@H](C)O)NC(=O)[C@H](CCCNC(=N)N)NC(=O)[C@H](CO)NC3=O)NC(=O)[C@H](CCCCN)NC(=O)[C@H](CC(=O)O)NC(=O)[C@H](CC(N)=O)NC(=O)[C@H](CC(=O)O)NC(=O)[C@@H]2CCCN2C1=O [compound 402] (H-DCLGFMRKCIPDNDKCCRPNLVCSRTHKWCKY[2Pal]F-NH2; disulfide 2-17, 9-23, 16-30) | 0.12 | 0.16 | 8.36 | – | – | – | –
6 | CC[C@H](C)[C@@H]1NC(=O)[C@@H]2CSSC[C@@H]3NC(=O)[C@H](C(C)C)NC(=O)[C@H](CC(C)C)NC(=O)[C@H](CC(N)=O)NC(=O)[C@@H]4CCCN4C(=O)[C@H](CCCNC(=N)N)NC(=O)[C@H](CSSC[C@H](NC(=O)[C@@H](N)CC(=O)O)C(=O)N[C@@H](CC(C)C)C(=O)NCC(=O)N[C@@H](Cc4ccccc4)C(=O)N[C@@H](CCSC)C(=O)N[C@@H](CCCNC(=N)N)C(=O)N[C@@H](CCCCN)C(=O)N2)NC(=O)[C@H](CSSC[C@@H](C(=O)N[C@@H](CCCCN)C(=O)N[C@@H](Cc2ccc(O)cc2)C(=O)N[C@@H](Cc2ccc(C(=O)O)cc2)C(=O)N[C@@H](Cc2ccccc2)C(N)=O)NC(=O)[C@H](Cc2c[nH]c4ccccc24)NC(=O)[C@H](CCCCN)NC(=O)[C@H](Cc2c[nH]cn2)NC(=O)[C@H]([C@@H](C)O)NC(=O)[C@H](CCCNC(=N)N)NC(=O)[C@H](CO)NC3=O)NC(=O)[C@H](CCCCN)NC(=O)[C@H](CC(=O)O)NC(=O)[C@H](CC(N)=O)NC(=O)[C@H](CC(=O)O)NC(=O)[C@@H]2CCCN2C1=O [compound 403] (H-DCLGFMRKCIPDNDKCCRPNLVCSRTHKWCKY[Phe(4-COOH)]F-NH2; disulfide 2-17, 9-23, 16-30) | 0.16 | 0.31 | 9.06 | – | – | – | –
7 | CC[C@H](C)[C@@H]1NC(=O)[C@@H]2CSSC[C@@H]3NC(=O)[C@H](C(C)C)NC(=O)[C@H](CC(C)C)NC(=O)[C@H](CC(N)=O)NC(=O)[C@@H]4CCCN4C(=O)[C@H](CCCNC(=N)N)NC(=O)[C@H](CSSC[C@H](NC(=O)[C@@H](N)CC(=O)O)C(=O)N[C@@H](CC(C)C)C(=O)NCC(=O)N[C@@H](Cc4ccccc4)C(=O)N[C@@H](CCSC)C(=O)N[C@@H](CCCNC(=N)N)C(=O)N[C@@H](CCCCN)C(=O)N2)NC(=O)[C@H](CSSC[C@@H](C(=O)N[C@@H](CCCCN)C(=O)N[C@@H](Cc2ccc(O)cc2)C(=O)N[C@H](C(=O)N[C@@H](CC2CCCCC2)C(N)=O)C(C)C)NC(=O)[C@H](Cc2c[nH]c4ccccc24)NC(=O)[C@H](CCCCN)NC(=O)[C@H](Cc2c[nH]cn2)NC(=O)[C@H]([C@@H](C)O)NC(=O)[C@H](CCCNC(=N)N)NC(=O)[C@H](CO)NC3=O)NC(=O)[C@H](CCCCN)NC(=O)[C@H](CC(=O)O)NC(=O)[C@H](CC(N)=O)NC(=O)[C@H](CC(=O)O)NC(=O)[C@@H]2CCCN2C1=O [compound 405] (H-DCLGFMRKCIPDNDKCCRPNLVCSRTHKWCKYV[Cha]-NH2; disulfide 2-17, 9-23, 16-30) | – | – | – | – | 0.02 | 0.01 | 5.53
8 | CC[C@H](C)[C@@H]1NC(=O)[C@@H]2CSSC[C@@H]3NC(=O)[C@H](C(C)C)NC(=O)[C@H](CC(C)C)NC(=O)[C@H](CC(N)=O)NC(=O)[C@@H]4CCCN4C(=O)[C@H](CCCNC(=N)N)NC(=O)[C@H](CSSC[C@H](NC(=O)[C@@H](N)CC(=O)O)C(=O)N[C@@H](CC(C)C)C(=O)NCC(=O)N[C@@H](Cc4ccccc4)C(=O)N[C@@H](CCSC)C(=O)N[C@@H](CCCNC(=N)N)C(=O)N[C@@H](CCCCN)C(=O)N2)NC(=O)[C@H](CSSC[C@@H](C(=O)N[C@@H](CCCCN)C(=O)N[C@@H](Cc2ccc(O)cc2)C(=O)N[C@H](C(=O)N[C@H](C(N)=O)c2ccccc2)C(C)C)NC(=O)[C@H](Cc2c[nH]c4ccccc24)NC(=O)[C@H](CCCCN)NC(=O)[C@H](Cc2c[nH]cn2)NC(=O)[C@H]([C@@H](C)O)NC(=O)[C@H](CCCNC(=N)N)NC(=O)[C@H](CO)NC3=O)NC(=O)[C@H](CCCCN)NC(=O)[C@H](CC(=O)O)NC(=O)[C@H](CC(N)=O)NC(=O)[C@H](CC(=O)O)NC(=O)[C@@H]2CCCN2C1=O [compound 406] (H-DCLGFMRKCIPDNDKCCRPNLVCSRTHKWCKYV[Phg]-NH2; disulfide 2-17, 9-23, 16-30) | – | – | – | – | 0.04 | 0.02 | 5.95
